Some results are limits rather than exact numbers.

In the first assay the target is Wild type FGFR2 (Homo sapiens (Human), UniProt P21802). The experiment in a line: FGFR2 kinase assay (fluorescence-based microfluidic mobility shift assay). The format is biochemical. To be noted: wild type FGFR2 0.06 nM, 100 μM ATP, 80 minutes at room temperature; class symbols.
Sequence of Wild type FGFR2 (P21802 22-821): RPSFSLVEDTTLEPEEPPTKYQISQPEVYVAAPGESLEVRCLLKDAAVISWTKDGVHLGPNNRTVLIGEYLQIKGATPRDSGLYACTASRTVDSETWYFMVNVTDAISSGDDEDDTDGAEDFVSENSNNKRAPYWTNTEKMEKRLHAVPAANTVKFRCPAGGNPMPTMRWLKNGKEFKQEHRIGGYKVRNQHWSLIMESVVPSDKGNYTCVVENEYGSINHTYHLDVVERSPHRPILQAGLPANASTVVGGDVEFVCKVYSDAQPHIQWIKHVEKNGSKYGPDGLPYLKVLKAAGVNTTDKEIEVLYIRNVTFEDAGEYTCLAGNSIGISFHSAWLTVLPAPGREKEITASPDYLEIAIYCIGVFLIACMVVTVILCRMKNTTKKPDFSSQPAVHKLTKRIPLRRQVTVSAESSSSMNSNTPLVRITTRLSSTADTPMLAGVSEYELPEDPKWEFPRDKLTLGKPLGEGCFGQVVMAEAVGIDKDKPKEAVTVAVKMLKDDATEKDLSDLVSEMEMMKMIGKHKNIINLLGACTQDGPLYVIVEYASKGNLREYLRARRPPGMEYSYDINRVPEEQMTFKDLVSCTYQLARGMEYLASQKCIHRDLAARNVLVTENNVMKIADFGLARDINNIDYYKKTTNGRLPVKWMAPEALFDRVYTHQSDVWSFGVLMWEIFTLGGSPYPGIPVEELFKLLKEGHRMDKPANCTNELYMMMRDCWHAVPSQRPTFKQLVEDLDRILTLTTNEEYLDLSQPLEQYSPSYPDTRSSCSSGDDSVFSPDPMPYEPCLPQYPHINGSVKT
For the compound `C=CC(=O)N1C[C@@H](n2nc(C#Cc3ccn4nccc4c3)c(C(N)=O)c2NC)C[C@@H]1COC` [Example 56, 1-[(3S,5R)-5-(Methoxymethyl)-1-(prop-2-enoyl)pyrrolidin-3-yl]-5-(methylamino)-3-(2-[pyrazolo[1,5-a]pyridin-5-yl]ethynyl)pyrazole-4-carboxamide], the concentration for half-maximal inhibition (IC50) (as a rule, the concentration at which inhibition is half-maximal) was at most 0.1 µM.

On to `C=CC(=O)N1C[C@@H](n2nc(C#Cc3c(F)cc4[nH]c(C5CC5)nc4c3F)c(C(N)=O)c2NC)C[C@@H]1COC` [Example 61, 3-[2-(2-Cyclopropyl-4,6-difluoro-1H-1,3-benzodiazol-5-yl)ethynyl]-1-[(3S,5R)-5-(methoxymethyl)-1-(prop-2-enoyl)pyrrolidin-3-yl]-5-(methylamino)pyrazole-4-carboxamide], for which the concentration for half-maximal inhibition (IC50) is at most 0.1 µM. Same read-out and setting: the same measure for `C=CC(=O)N1C[C@@H](n2nc(C#Cc3cc4nc(C5CC5)n(C)c4cc3F)c(C(N)=O)c2NC)C[C@@H]1COC` [Example 62, 3-[2-(2-Cyclopropyl-6-fluoro-1-methyl-1,3-benzodiazol-5-yl)ethynyl]-1-[(3S,5R)-5-(methoxymethyl)-1-(prop-2-enoyl)pyrrolidin-3-yl]-5-(methylamino)pyrazole-4-carboxamide]: at most 0.1 µM; for `C=CC(=O)N1C[C@@H](n2nc(C#Cc3ccc4nccnc4c3)c(C(N)=O)c2NC)C[C@@H]1COC` [Example 64, 1-[(3S,5R)-5-(Methoxymethyl)-1-(prop-2-enoyl)pyrrolidin-3-yl]-5-(methylamino)-3-[2-(quinoxalin-6-yl)ethynyl] pyrazole-4-carboxamide]: at most 0.1 µM; for `C=CC(=O)N1C[C@@H](n2nc(C#Cc3ccc4cc(C)cnc4c3)c(C(N)=O)c2NC)C[C@@H]1COC` [Example 65, 1-((3S,5R)-1-Acryloyl-5-(methoxymethyl)pyrrolidin-3-yl)-5-(methylamino)-3-((3-methylquinolin-7-yl)ethynyl)-1H-pyrazole-4-carboxamide]: at most 0.1 µM. For the compound `C=CC(=O)N1C[C@@H](n2nc(C#Cc3ccc4ccnn4c3)c(C(N)=O)c2NC)C[C@@H]1COC` [Example 67, 1-[(3S,5R)-5-(Methoxymethyl)-1-(prop-2-enoyl)pyrrolidin-3-yl]-5-(methylamino)-3-(2-[pyrazolo[1,5-a]pyridin-6-yl]ethynyl)pyrazole-4-carboxamide], the half-inhibitory concentration (IC50) was at most 0.1 µM.

Still in this assay, the particulars now being: wild type FGFR2 0.06 nM, 100 μM ATP, 80 minutes at room temperature; given as numeric bound.
As for `C=CC(=O)N1C[C@@H](n2nc(C#Cc3ccc4nccn4c3)c(C(N)=O)c2NC)C[C@@H]1COC` [Example 55, 1-((3S,5R)-1-Acryloyl-5-(methoxymethyl)pyrrolidin-3-yl)-3-(imidazo[1,2-a]pyridin-6-ylethynyl)-5-(methylamino)-1H-pyrazole-4-carboxamide], the IC50 was over 0.5 µM. With `C=CC(=O)N1C[C@@H](n2nc(C#Cc3cnc4nccn4c3)c(C(N)=O)c2NC)C[C@@H]1COC` [Example 57, 3-(2-[Imidazo[1,2-a]pyrimidin-6-yl]ethynyl)-1-[(3S,5R)-5-(methoxymethyl)-1-(prop-2-enoyl)pyrrolidin-3-yl]-5-(methylamino)pyrazole-4-carboxamide], the IC50 is over 0.5 µM. Regarding `C=CC(=O)N1C[C@@H](n2nc(C#Cc3ccn4ccnc4n3)c(C(N)=O)c2NC)C[C@@H]1COC` [Example 58, 3-(2-[Imidazo[1,2-a]pyrimidin-7-yl]ethynyl)-1-[(3S,5R)-5-(methoxymethyl)-1-(prop-2-enoyl)pyrrolidin-3-yl]-5-(methylamino)pyrazole-4-carboxamide], the IC50 is over 0.5 µM. Regarding `C=CC(=O)N1C[C@@H](n2nc(C#Cc3cc4nc(C5CC5)n(C)c4cn3)c(C(N)=O)c2NC)C[C@@H]1COC` [Example 63, 3-(2-[2-Cyclopropyl-3-methylimidazo[4,5-c]pyridin-6-yl]ethynyl)-1-[(3S,5R)-5-(methoxymethyl)-1-(prop-2-enoyl)pyrrolidin-3-yl]-5-(methylamino)pyrazole-4-carboxamide], the IC50 is over 0.5 µM.

Source of the values: patent publication US11345681B1, “Inhibitors of fibroblast growth factor receptor kinases” (Kinnate Biopharma Inc., priority 2020, dated 2022).
